Earlier results in patent EP2517696A1, “Extended release memantine tablet” (Ali Raif Ilaç Sanayi ve Ticaret Anonim Sirketi, priority 2011, dated 2012).
Where a name gives a salt, the structure may show the parent alone.

Tests used:
[1] = high dissolution and permeability
[2] = in vivo

For CC12CC3CC(C)(C1)CC(N)(C3)C2 [Memantine HCl, 3,5 dimethyl-1-adamantamine hydrochloride], which BCS class [1] is on record?
The BCS class was “BCS 1 class”.

And the absolute bioavailability [2]?
The absolute bioavailability was 100%.
